Measured values from patent EP2311457A1, “Pharmaceutical compositions for treating infections with drug resistant mycobacteria” (priority 2009, dated 2011).
Converted amounts (≈) assume the structure as drawn.

Test system: Mtb H37Rv ATCC 272945
Assay: Drug susceptibility testing, radiometric MIC determination (BACTEC 460TB)
Settings: Mycobacterium tuberculosis, ATCC272945|H37RV, read-out: minimal inhibitory concentrations
Experimental: Drug susceptibility testing (DST) was performed with the broth-based radiometric BACTEC 460TB system (Becton Dickinson Diagnostic Systems, Sparks, MD) which is considered the laboratory "gold standard". The standard protocol for DST and determination of MICs was strictly followed as recommended by the manufacturers.

`C(=NNc1nncc2ccccc12)c1ccc(OCc2ccccc2)cn1` [PH22-6, 5-benzyloxypyridine-2-aldehyde-1'-phthalazinylhydrazone] and `C(=NNc1ncnc2ccccc12)c1ccc(OCc2ccccc2)cn1` [PH22-52, 5-benzyloxypyridine-2-aldehyde-4'-quinazolinylhydrazone] cannot be ordered by MIC: 5 µg/mL (≈ 14.1 µM) for the first, 1 to 5 µg/mL (≈ 2.81 to 14.1 µM) for the second.

`Cc1ccc(C=NNc2ccc3ccccc3n2)nc1` [PH22-14, 5-methylpyridine-2-aldehyde-2'-quinolylhydrazone] and `Cc1ccc(C=NNc2nncc3ccccc23)nc1` [PH22-16, 5-methyl-pyridine-2-aldehyde-1'-phthalazinylhydrazone] cannot be ordered by MIC: 0.5 µg/mL (≈ 1.91 µM) for the first, under 1 µg/mL for the second.

Going from `c1ccc(C(=NNc2ccc3ccccc3n2)c2ccccn2)cc1` [PH22-15, 2-benzoylpyridine-2'-quinolylhydrazone] to `c1ccc(C(=NNc2nncc3ccccc23)c2ccccn2)cc1` [PH22-22, 2-benzoylpyridine-1'-phthalazinylhydrazone], the MIC rises from 0.25 µg/mL (≈ 0.771 µM) to 5 µg/mL (≈ 15.4 µM) (20-fold).

Compared with `Cc1cccc(NN=Cc2ccccn2)n1` [PH22-31, pyridine-2-aldehyde-6'-methyl-2'-pyridylhydrazone], `C(=NNc1ccccn1)c1ccc(OCc2ccccc2)cn1` [PH22-49, 5-benzyloxypyridine-2-aldehyde-2'-pyridylhydrazone] is higher in MIC: under 1 µg/mL for the first, 5 µg/mL (≈ 16.4 µM) for the second.

Going from `CCc1ccc(C=NNc2cc(OC)ncn2)nc1` [PH22-33, 5-ethylpyridine-2-aldehyde-6'-methoxy-4'-pyrimidylhydrazone] to `Clc1ccc(NN=Cc2ccc(OCc3ccccc3)cn2)nn1` [PH22-51, 5-benzyloxypyridine-2-aldehyde-6'-chloro-3'-pyridazinylhydrazone], the MIC rises from under 0.125 µg/mL to 1 µg/mL (≈ 2.94 µM).

Test system: Murine bone marrow derived macrophages
Assay: not given
Settings: not given

With `CCc1ccc(C=NNc2cc(OC)ncn2)nc1` [PH22-33, 5-ethylpyridine-2-aldehyde-6'-methoxy-4'-pyrimidylhydrazone] the “toxicity as measured by MTT assay” value was “No toxicity was observed”.
